Literature values in US8828977B2, “Method of treating a subject suffering from degenerative disc disease using a matrix metalloprotease inhibitor” (priority 2006, dated 2014).
Values after ≈ are worked out from the molar mass of the structure shown. Where two headings read alike, the source gives them in different places.

Columns and labels:
[1] = two dose-escalation studies in humans
[2] = system: metastatic melanoma cells; conditions: metastatic melanoma cells in vitro
[3] = stability and solubility inversely related
[4] = system: panel of prostate cancer cell lines; conditions: MTT assays
[5] = biological target: T1, MMP-2 (Homo sapiens, UniProt P08253)
T1 sequence (P08253 110-660): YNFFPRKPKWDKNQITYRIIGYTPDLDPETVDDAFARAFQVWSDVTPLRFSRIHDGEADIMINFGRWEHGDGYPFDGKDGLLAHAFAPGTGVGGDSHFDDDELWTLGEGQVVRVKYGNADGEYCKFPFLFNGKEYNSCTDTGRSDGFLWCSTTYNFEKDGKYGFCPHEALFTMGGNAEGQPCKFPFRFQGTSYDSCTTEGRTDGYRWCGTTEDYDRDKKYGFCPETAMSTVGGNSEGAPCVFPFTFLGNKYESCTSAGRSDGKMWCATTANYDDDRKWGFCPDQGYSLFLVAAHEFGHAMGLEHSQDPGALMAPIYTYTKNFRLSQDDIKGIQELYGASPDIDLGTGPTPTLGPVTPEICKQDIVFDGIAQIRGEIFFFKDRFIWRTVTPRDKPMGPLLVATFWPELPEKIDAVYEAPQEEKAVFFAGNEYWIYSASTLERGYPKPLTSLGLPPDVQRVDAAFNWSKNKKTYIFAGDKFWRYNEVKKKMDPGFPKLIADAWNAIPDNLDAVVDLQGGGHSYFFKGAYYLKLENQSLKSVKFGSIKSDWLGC

[6] = 142 animals, daily gavage 40 mg/kg for 7 days
[7] = biological target: MMP-9 (Homo sapiens, UniProt P14780); conditions: of the seven CMTs evaluated, zymography
Chain of MMP-9 (P14780 94-707): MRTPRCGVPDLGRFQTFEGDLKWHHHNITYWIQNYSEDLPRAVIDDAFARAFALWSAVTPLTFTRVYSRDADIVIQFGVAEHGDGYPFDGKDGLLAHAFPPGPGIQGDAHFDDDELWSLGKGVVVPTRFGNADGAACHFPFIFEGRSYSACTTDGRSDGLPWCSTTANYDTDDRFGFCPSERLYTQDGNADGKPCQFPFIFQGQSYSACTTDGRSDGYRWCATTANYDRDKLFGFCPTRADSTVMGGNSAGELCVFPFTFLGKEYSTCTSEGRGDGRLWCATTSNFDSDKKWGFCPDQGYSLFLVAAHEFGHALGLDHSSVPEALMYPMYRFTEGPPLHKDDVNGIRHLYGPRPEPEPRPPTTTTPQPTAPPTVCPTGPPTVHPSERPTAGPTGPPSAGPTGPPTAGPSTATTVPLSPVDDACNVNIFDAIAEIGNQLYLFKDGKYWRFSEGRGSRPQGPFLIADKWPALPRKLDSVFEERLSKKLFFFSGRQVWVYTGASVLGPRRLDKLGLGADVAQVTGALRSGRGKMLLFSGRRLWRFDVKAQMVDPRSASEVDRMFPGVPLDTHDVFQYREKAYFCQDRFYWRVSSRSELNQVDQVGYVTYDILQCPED

[8] = rats, single oral dose of suspension
[9] = system: AIDS-associated Kaposi's sarcoma
[10] = system: Dunning MatLyLu rat prostate tumor
[11] = system: human melanoma cell line; conditions: activity comparable to doxycycline
[12] = not given; remark: listed apart in the source
[13] = biological target: T2, COX-2 (Homo sapiens, UniProt P35354); conditions: in vitro
T2 sequence (P35354 18-604): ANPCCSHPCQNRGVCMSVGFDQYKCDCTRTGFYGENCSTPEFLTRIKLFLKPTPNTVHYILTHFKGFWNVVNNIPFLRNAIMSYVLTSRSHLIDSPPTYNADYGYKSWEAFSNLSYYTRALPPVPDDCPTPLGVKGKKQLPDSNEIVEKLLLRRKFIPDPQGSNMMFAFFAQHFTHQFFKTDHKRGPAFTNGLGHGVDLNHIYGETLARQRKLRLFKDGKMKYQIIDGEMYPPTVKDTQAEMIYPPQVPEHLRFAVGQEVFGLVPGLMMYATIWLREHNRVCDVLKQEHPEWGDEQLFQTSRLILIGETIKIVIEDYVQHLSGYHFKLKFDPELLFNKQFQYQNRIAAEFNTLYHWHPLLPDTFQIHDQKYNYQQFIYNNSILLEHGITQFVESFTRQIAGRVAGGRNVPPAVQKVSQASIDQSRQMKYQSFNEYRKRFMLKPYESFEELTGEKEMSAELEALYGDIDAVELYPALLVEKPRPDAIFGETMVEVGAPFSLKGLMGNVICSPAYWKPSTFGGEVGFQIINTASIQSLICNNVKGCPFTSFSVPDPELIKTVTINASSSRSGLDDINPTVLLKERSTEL

[14] = not given; remark: listed apart in the source
[15] = system: HUVEC; conditions: in vitro
[16] = system: refractory metastatic cancers
[17] = system: prostate cancer cell lines
[18] = system: human umbilical vein endothelial cells (HUVECs); conditions: HUVECs stimulated with angiogenic factors in vitro
[19] = system: iNOS mRNA
[20] = system: lung foci (experimental metastasis); conditions: SCID mice
[21] = monkeys, any dosing schedule, after three to five doses
[22] = biological target: T1, MMP-2; conditions: of the seven CMTs evaluated, zymography
[23] = 18 KS patients, sampling lasted only 24 h
[24] = rats
[25] = system: rheumatoid arthritis synoviocytes; conditions: activity comparable to doxycycline
[26] = system: immune responses; conditions: in vivo
[27] = mice
[28] = non-competitive component, read-out: Ki′ (the dissociation equilibrium constant) value for MMP-2
[29] = 35 patients with refractory metastatic cancers

Compound: NC(=O)C1=C(O)C[C@@H]2C[C@@H]3Cc4cccc(O)c4C(=O)C3=C(O)[C@]2(O)C1=O [CMT-3]
- dose up to which plasma levels increased (plateau of steady-state concentration above) [1]: up to 50 mg/m^2/day
- vascular mimicry [2]: inhibited this mechanism
- pH of maximum stability [3]: < 4
- cytotoxicity [4]: significantly cytotoxic
- Ki ([5]; competitive component, read-out: dissociation binding constant (Ki) value for MMP-2): 74 µM
- Ki [5, 28]: 148 µM
- adverse effects or weight loss [6]: no adverse effects or weight loss
- rank as MMP-9 inhibitor [7]: second most potent MMP-9 inhibitor
- half-life [8]: approximately 6 h
- median duration of response ([9]; 18 KS patients): > 25 weeks
- median time to response ([9]; 18 KS patients): 4 weeks
- overall response rate ([9]; 18 KS patients, one complete and seven partial responses): 44%
- doses not tolerated ([9]; KS patients): > 50 mg/m^2/day
- evaluable patients with decrease in plasma concentration of MMP-2 ([9]; KS patients): 61%
- evaluable patients with decrease in plasma concentration of MMP-9 ([9]; KS patients): 37%
- doses reasonably well tolerated ([9]; KS patients, dose levels 25, 50 and 70): up to 70 mg/m^2/day
- increase of MMP-2 level from baseline ([9]; non-responding patients): 300 ng/mL
- decrease of MMP-2 level from baseline ([9]; responding patients): 56 ng/mL
- instances of lung metastases ([10]; daily gavage at 40 mg/kg for 7 days, controls 59.5±13.9): 28.9±15.4 tumors/animal
- decrease of primary tumor incidence ([10]; pre-dosing the rats for 7 days): 55±9%
- delay of tumor growth ([10]; pre-dosing the rats for 7 days): 27±9.3%
- reduction in metastases ([10]; pre-dosing the rats for 7 days): 58±8%
- total apparent clearance [29]: 0.163 ± 0.0967 mL/min/kg
- median half-life (35 patients, one-compartment model): approximately 56.1 h
- median apparent total clearance (humans): 0.17 mL/min/kg
- median pseudo-steady-state apparent volume of distribution (humans): 0.64 L/kg
- inhibiting the in vitro invasive ability [11]: most active
- dose with histopathological lesions in the small intestine and thymus ([12]; rats): 100 mg/kg/day
- plasma level at which dose-limiting gastrointestinal toxicities occurred ([12]; rats (stated for both species)): ≥ 15000 ng/mL
- COX-2 enzyme activity [13]: inhibit COX-2 enzyme activity
- water solubility [14]: ~10 µg/mL (≈ 26.9 µM)
- HUVEC proliferation [15]: inhibited HUVEC proliferation
- patients experiencing some phototoxicity ([16]; 50 mg/m^2/day, sun-block mandatory): over 50%
- cases of drug-induced lupus [16, 29]: three cases
- cases of reversible sideroblastic anemia [16, 29]: three cases
- maximum tolerated dose (MTD) [16, 29]: 98 mg/m^2/day
- change between pre- and post-treatment levels of MMP-2 or MMP-9 ([16]; 35 patients, overall): no significant change
- sunburn (photosensitivity), dose-limiting ([16]; highest dose 98 mg/m^2/day, despite prophylactic measures): all 18 patients developed sunburn
- musculoskeletal side effects ([16]; human trials): no reports
- disease-stabilization ([16]; three out of seven patients with tumors of non-epithelial origin): 43%
- apoptosis, necrosis and cell-cycle arrest ([17]; added to prostate cell lines in vitro): increased apoptosis and necrosis as well as cell-cycle arrest
- time of exposure to apoptosis induction ([17]; prostate cancer cell lines): ≤ 4 h
- induction of apoptosis ([17]; prostate cancer cell lines, concentration-dependent): induced apoptosis
- microtubule formation [18]: inhibited microtubule formation
- iNOS mRNA degradation [19]: increases iNOS mRNA degradation
- metastatic invasion compared with control animals ([20]; higher dose 100 mg/kg): did not significantly impact
- number of lung foci ([20]; orally at 40 mg/kg): significantly reduced
- dose resulting in mortalities [21]: 100 mg/kg/day
- rank as MMP-2 inhibitor [22]: most effective MMP-2 inhibitor
- median half-life [23]: 39.3 h
- terminal half-life [24]: 7 h
- inhibiting the in vitro invasive ability [25]: most active

Compound: C[C@H]1c2cccc(O)c2C(=O)C2=C(O)[C@]3(O)C(=O)C(C(N)=O)=C(O)[C@@H](N(C)C)[C@@H]3[C@@H](O)[C@@H]21 [doxycycline]
- cytotoxicity [4]: significantly cytotoxic
- Ki [5, 28]: 144 µM
- effect on immune responses [26]: moderately inhibit immune responses
- hepatotoxic effect [27]: hepatotoxic effect
